Measured values taken from ChEMBL document CHEMBL1201862, “PubChem BioAssay data set” (2004).
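Test compounds were applied to cells in 96-well plates for 48 hours at 5 doses. Here, GI50 denotes the concentration required for 50% inhibition of growth.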 Calls of active or inactive are those of the source. No stated cut-off is given here; in the data, active = GI50 up to about 1.1 µM and inactive = higher.

Columns and labels:
Assay in all cases: NCI anticancer screen, dose series, 48 h
HT-29 = test system: HT-29
SK-MEL-2 = test system: SK-MEL-2
SN12C = test system: SN12C
UO-31 = test system: UO-31
OVCAR-3 = test system: OVCAR-3
EKVX = test system: EKVX
SF-295 = test system: SF-295
TK-10 = test system: TK-10
CAKI-1 = test system: CAKI-1
HL-60 = test system: HL-60
NCI-H460 = test system: NCI-H460
OVCAR-8 = test system: OVCAR-8
NCI/ADR-RES = test system: NCI/ADR-RES
COLO 205 = test system: COLO 205
SNB-19 = test system: SNB-19
LOX IMVI = test system: LOX IMVI
CCRF-CEM = test system: CCRF-CEM
MOLT-4 = test system: MOLT-4
NCI-H522 = test system: NCI-H522
Hs-578T = test system: Hs-578T

Measured: GI50

CC1=CC(=O)/C(=C/Nc2nc(-c3cccc([N+](=O)[O-])c3)cs2)C(=O)O1
inactive: HT-29 89.9 µM | SK-MEL-2 > 100 µM | SN12C 66.5 µM | UO-31 29.9 µM | OVCAR-3 > 100 µM | EKVX 39.4 µM | SF-295 > 100 µM | TK-10 1.93 µM | CAKI-1 24.8 µM | HL-60 13.6 µM | NCI-H460 > 100 µM | OVCAR-8 > 100 µM | NCI/ADR-RES 44.4 µM | COLO 205 85.7 µM | SNB-19 > 100 µM | LOX IMVI 39.2 µM

O=C(Nc1cc(Cl)c(Cl)cc1Cl)C(=O)C1C=CCS1(=O)=O (configuration not stated)
inactive: HT-29 > 100 µM | SK-MEL-2 > 100 µM | SN12C 93.5 µM | CCRF-CEM > 100 µM | UO-31 > 100 µM | OVCAR-3 > 100 µM | EKVX > 100 µM | SF-295 > 100 µM | TK-10 > 100 µM | CAKI-1 > 100 µM | HL-60 > 100 µM | MOLT-4 > 100 µM | NCI-H522 > 100 µM | NCI-H460 > 100 µM | OVCAR-8 > 100 µM | COLO 205 > 100 µM | SNB-19 > 100 µM | LOX IMVI > 100 µM

CCOC(=O)C1(C(=O)OCC)CCCN1C(=O)[C@H](CNC(=O)OC(C)(C)C)NC(=O)OCc1ccccc1
inactive: HT-29 > 100 µM | SK-MEL-2 > 100 µM | SN12C > 100 µM | CCRF-CEM 17.4 µM | UO-31 > 100 µM | OVCAR-3 > 100 µM | EKVX > 100 µM | SF-295 > 100 µM | TK-10 > 100 µM | CAKI-1 > 100 µM | MOLT-4 27.8 µM | NCI-H460 > 100 µM | NCI/ADR-RES > 100 µM | COLO 205 > 100 µM | Hs-578T > 100 µM | SNB-19 > 100 µM | LOX IMVI > 100 µM

CCC(C)(O)c1cn(-c2cccc(S(=O)(=O)O)c2)nn1 (configuration not stated)
inactive: HT-29 > 100 µM | SK-MEL-2 > 100 µM | SN12C > 100 µM | CCRF-CEM > 100 µM | UO-31 > 100 µM | OVCAR-3 > 100 µM | EKVX > 100 µM | SF-295 > 100 µM | TK-10 > 100 µM | CAKI-1 > 100 µM | HL-60 > 100 µM | MOLT-4 > 100 µM | NCI-H522 > 100 µM | NCI-H460 > 100 µM | OVCAR-8 > 100 µM | COLO 205 > 100 µM | SNB-19 > 100 µM | LOX IMVI > 100 µM

CCOc1ccc(N/C(=C(/C(Cl)=C(/Cl)NCCO)[N+](=O)[O-])n2nnc3ccccc32)cc1
inactive: HT-29 29.9 µM | SK-MEL-2 35 µM | SN12C 19.8 µM | CCRF-CEM 5.57 µM | UO-31 19.5 µM | OVCAR-3 18.1 µM | EKVX 25.2 µM | SF-295 28 µM | CAKI-1 14.4 µM | MOLT-4 5.96 µM | NCI-H460 48 µM | OVCAR-8 18.3 µM | NCI/ADR-RES 25.2 µM | COLO 205 16.1 µM | Hs-578T 15.2 µM | SNB-19 51.1 µM

Cc1cc(C)nc(NS(=O)(=O)c2ccc(NC(=O)c3c4ccccc4nc4ccccc34)cc2)n1
inactive: HT-29 50.8 µM | SK-MEL-2 > 100 µM | SN12C > 100 µM | CCRF-CEM > 100 µM | UO-31 37.4 µM | OVCAR-3 56.9 µM | EKVX > 100 µM | SF-295 > 100 µM | TK-10 82.2 µM | CAKI-1 87.3 µM | MOLT-4 > 100 µM | NCI-H522 64.3 µM | NCI-H460 > 100 µM | OVCAR-8 47.9 µM | NCI/ADR-RES > 100 µM | COLO 205 75.2 µM | SNB-19 > 100 µM | LOX IMVI 81.1 µM

CCO/C=C1\N=C(c2ccccc2Br)OC1=O
inactive: HT-29 > 100 µM | SK-MEL-2 > 100 µM | SN12C > 100 µM | CCRF-CEM > 100 µM | UO-31 > 100 µM | OVCAR-3 > 100 µM | EKVX > 100 µM | SF-295 > 100 µM | TK-10 > 100 µM | CAKI-1 > 100 µM | HL-60 > 100 µM | MOLT-4 > 100 µM | NCI-H522 > 100 µM | NCI-H460 > 100 µM | OVCAR-8 > 100 µM | COLO 205 > 100 µM | SNB-19 > 100 µM | LOX IMVI > 100 µM

COc1ccc(OC)c2c3c(ccc12)C(c1ccccc1)OC3=O (configuration not stated)
inactive: HT-29 58.3 µM | SK-MEL-2 55 µM | SN12C 94.2 µM | CCRF-CEM 64 µM | UO-31 36.8 µM | OVCAR-3 25.8 µM | EKVX > 100 µM | SF-295 52.6 µM | TK-10 60.4 µM | CAKI-1 55.1 µM | HL-60 33.7 µM | MOLT-4 32.9 µM | NCI-H522 36.5 µM | NCI-H460 47.2 µM | OVCAR-8 39.4 µM | COLO 205 54 µM | SNB-19 > 100 µM | LOX IMVI 56.5 µM

COC(=O)C(C(=O)C(=O)Nc1nnc(S)[nH]1)c1csc(N)n1 (configuration not stated)
inactive: HT-29 > 100 µM | SK-MEL-2 > 100 µM | SN12C > 100 µM | CCRF-CEM > 100 µM | UO-31 > 100 µM | OVCAR-3 > 100 µM | EKVX > 100 µM | SF-295 > 100 µM | TK-10 > 100 µM | CAKI-1 > 100 µM | HL-60 > 100 µM | MOLT-4 > 100 µM | NCI-H522 > 100 µM | NCI-H460 > 100 µM | OVCAR-8 > 100 µM | COLO 205 > 100 µM | SNB-19 > 100 µM | LOX IMVI > 100 µM

O=C(O)C1CCCN(CCc2c[nH]c3ccccc23)C1 (configuration not stated)
inactive: HT-29 > 100 µM | SK-MEL-2 > 100 µM | SN12C > 100 µM | CCRF-CEM > 100 µM | OVCAR-3 > 100 µM | EKVX > 100 µM | SF-295 > 100 µM | TK-10 > 100 µM | CAKI-1 > 100 µM | HL-60 > 100 µM | MOLT-4 > 100 µM | NCI-H522 > 100 µM | NCI-H460 > 100 µM | OVCAR-8 > 100 µM | NCI/ADR-RES > 100 µM | COLO 205 > 100 µM | SNB-19 > 100 µM | LOX IMVI > 100 µM

COc1ccc(NC(=O)CCc2cc(C(C)(C)C)[nH]n2)cc1
inactive: HT-29 > 100 µM | SK-MEL-2 > 100 µM | SN12C > 100 µM | CCRF-CEM > 100 µM | UO-31 > 100 µM | OVCAR-3 > 100 µM | EKVX > 100 µM | SF-295 > 100 µM | TK-10 > 100 µM | CAKI-1 > 100 µM | HL-60 > 100 µM | MOLT-4 > 100 µM | NCI-H522 74 µM | NCI-H460 > 100 µM | OVCAR-8 > 100 µM | COLO 205 > 100 µM | SNB-19 > 100 µM | LOX IMVI > 100 µM

CSc1ncnc2c1cnn2Cc1cn(COCC(O)CO)nn1 (configuration not stated)
inactive: HT-29 > 100 µM | SK-MEL-2 > 100 µM | SN12C > 100 µM | CCRF-CEM > 100 µM | UO-31 > 100 µM | OVCAR-3 > 100 µM | EKVX > 100 µM | SF-295 > 100 µM | TK-10 > 100 µM | CAKI-1 > 100 µM | HL-60 > 100 µM | MOLT-4 > 100 µM | NCI-H522 21.2 µM | OVCAR-8 > 100 µM | NCI/ADR-RES > 100 µM | COLO 205 > 100 µM | SNB-19 > 100 µM | LOX IMVI > 100 µM

CCC1C(c2ccccc2O)c2cc3c(cc2OC1N1CCOCC1)OCO3 (configuration not stated)
inactive: HT-29 13.6 µM | SK-MEL-2 15.5 µM | SN12C 15.7 µM | CCRF-CEM 13.9 µM | UO-31 13.9 µM | OVCAR-3 12.5 µM | EKVX 12.8 µM | SF-295 14.9 µM | TK-10 13.9 µM | CAKI-1 16.6 µM | HL-60 18.2 µM | MOLT-4 6.44 µM | NCI-H522 12.9 µM | NCI-H460 14.3 µM | OVCAR-8 20.8 µM | COLO 205 15.4 µM | Hs-578T 15.9 µM | SNB-19 15.3 µM | LOX IMVI 14.9 µM

CN(C)[C@@H]1C(O)=C(C(=O)NCNCCCC(=O)O)C(=O)[C@@]2(O)C(O)=C3C(=O)c4c(O)cccc4[C@@](C)(O)[C@H]3C[C@@H]12
inactive: HT-29 > 100 µM | SK-MEL-2 > 100 µM | SN12C > 100 µM | CCRF-CEM > 100 µM | UO-31 > 100 µM | OVCAR-3 > 100 µM | EKVX > 100 µM | SF-295 > 100 µM | TK-10 > 100 µM | CAKI-1 > 100 µM | HL-60 > 100 µM | MOLT-4 > 100 µM | NCI-H522 > 100 µM | NCI-H460 > 100 µM | OVCAR-8 > 100 µM | COLO 205 > 100 µM | SNB-19 > 100 µM | LOX IMVI > 100 µM

Cc1c(O)c(OC2OC(CO)C(O)C(O)C2O)cc2c1CC[C@@H]1C2(C)C(=O)C[C@]2(C)[C@@H]([C@@](C)(O)C(O)/C=C/C(C)(C)O)[C@H](O)C[C@@]12C (some centres not stated)
inactive: HT-29 > 100 µM | SK-MEL-2 > 100 µM | SN12C > 100 µM | CCRF-CEM > 100 µM | UO-31 > 100 µM | OVCAR-3 > 100 µM | EKVX > 100 µM | SF-295 > 100 µM | TK-10 > 100 µM | CAKI-1 > 100 µM | HL-60 > 100 µM | MOLT-4 > 100 µM | NCI-H522 > 100 µM | NCI-H460 > 100 µM | OVCAR-8 > 100 µM | NCI/ADR-RES > 100 µM | COLO 205 > 100 µM | SNB-19 > 100 µM | LOX IMVI > 100 µM
